Patent EP1674467A1, “2,5- and 2,6-disubstituted benzazole derivatives useful as protein kinase inhibitors” (4SC AG, priority 2004, dated 2006)

These compounds were tested against at least one kinase selected from Aurora-A, Aurora-B, EGF-R, ERBB2, PDGFR, IGF1-R, VEGF-R2, VEGF-R3, EPHB4, Tie2, and SRC (assay: 33PanQinase Activity Assay (protein kinase assay)). Details: on at least one kinase of the listed panel, or on at least two kinases from at least two different molecular mechanisms of tumor progression; 1 µM [γ-33P]-ATP, 30°C, 80 minutes.
Format: biochemical, human
Procedure: The effect of the benzazole derivatives was tested on recombinant, human protein kinases. All protein kinases were expressed in Sf9 insect cells as human recombinant GST-fusion proteins or as His-tagged proteins by means of the baculovirus expression system. Protein kinases were purified by affinity chromatography using either GSH-agarose or Ni-NTH-agarose. The purity and identity of each was checked by SDS-PAGE/silver staining and by western blot analysis with specific antibodies.
A proprietary protein kinase assay (^33PanQinase® Activity Assay) was used for measuring the kinase activity. All kinase assays were performed in 96-well FlashPlates™ in a 50 µl reaction volume. The assay for all enzymes contained 60 mM HEPES-NaOH, pH 7.5, 3 mM MgCl2, 3 mM MnCl2, 3 µM Na-orthovanadate, 1.2 mM DTT, 50 µg/ml PEG20000 and 1 µM [γ-^33P]-ATP (approx. 5x10^5 cpm per well). The reaction cocktails were incubated at 30°C for 80 minutes. The reaction was stopped with 50 µl of 2% (v/v) H3PO4, plates were aspirated and washed two times with 200 µl of 0.9% (w/v) NaCl. Incorporation of ^33Pi was determined with a microplate scintillation counter. All assays were performed with a BeckmanCoulter/ Sagian robotic system.

IC50, < 500 nM:
COc1cc2c(Nc3nc4ccc(NC(=O)Nc5ccc(Cl)c(C(F)(F)F)c5)cc4s3)ncnc2cc1OCCCN1CCN(C)CC1 [Example 19, 1-(4-Chloro-3-trifluoromethylphenyl)-3-(2-{6-methoxy-7-[3-(4-methylpiperazin-1-yl)-propoxy]quinazolin-4-ylamino}benzothiazol-6-yl)urea]
COc1cc2ncnc(Nc3nc4ccc(NC(=O)c5cccc(OC(F)(F)F)c5)cc4s3)c2cc1OC [Example 11, N-[2-(6,7-Dimethoxyquinazolin-4-ylamino)-benzothiazol-6-yl]-3-trifluoromethoxybenzamide]
COc1cc2ncnc(Nc3nc4ccc(NC(=O)Nc5cccc(C(F)(F)F)c5)cc4s3)c2cc1OC [Example 15, 1-[2-(6,7-Dimethoxyquinazolin-4-ylamino)benzothiazol-6-yl]-3-(3-trifluoromethylphenyl)urea]
COc1cc2ncnc(Nc3nc4cc(NC(=O)Nc5ccc(Cl)c(C(F)(F)F)c5)ccc4s3)c2cc1OC [Example 20, 1-(4-Chloro-3-trifluoromethylphenyl)-3-[2-(6,7-dimethoxyquinazolin-4-yl-amino)benzothiazol-5-yl]urea]
COc1cc2ncnc(Nc3nc4ccc(NC(=O)Nc5ccc(Cl)c(C(F)(F)F)c5)cc4s3)c2cc1OC [Example 18, 1-(4-Chloro-3-trifluoromethylphenyl)-3-[2-(6,7-dimethoxyquinazolin-4-yl-amino)benzothiazol-6-yl]urea]
COc1cc2ncnc(Nc3nc4ccc(NC(=O)Nc5ccccc5)cc4s3)c2cc1OC [Example 12, 1-[2-(6,7-Dimethoxyquinazolin-4-ylamino)benzothiazol-6-yl]-3-phenylurea]
COc1cc2ncnc(Nc3nc4ccc(NC(=O)Nc5cccc(F)c5)cc4s3)c2cc1OC [Example 14, 1-[2-(6,7-Dimethoxyquinazolin-4-ylamino)benzothiazol-6-yl]-3-(3-fluorophenyl)urea]
